The term Ki denotes the dissociation constant of the complex between target and ligand, obtained from inhibition or displacement. What is called EC50 is the concentration giving half of the maximal effect. Higher therefore signals lower potency in that assay.

Assay [1] deals with T1, isolated recombinant JAK1 kinase domain (Homo sapiens, UniProt P23458).
T1 construct: isolated recombinant JAK1 and JAK2 kinase domain
The experiment in a line: JAK enzyme assay, JAK1 kinase domain (Caliper LabChip). It is filed as biochemical. To be noted: 1.5 nM JAK1, ATP 25 μM, Morrison tight binding model. As for the experimental part:
(§1) JAK Enzyme Assays were Carried Out as Follows:
(§2) The activity of the isolated recombinant JAK1 and JAK2 kinase domain was measured by monitoring phosphorylation of a peptide derived from JAK3 (Val-Ala-Leu-Val-Asp-Gly-Tyr-Phe-Arg-Leu-Thr-Thr, fluorescently labeled on the N-terminus with 5-carboxyfluorescein) using the Caliper LabChip® technology (Caliper Life Sciences, Hopkinton, Mass.). […] Reactions were incubated at 22 °C in 384-well polypropylene microtiter plates for 30 minutes and then stopped by addition of 25 μL of an EDTA containing solution (100 mM HEPES buffer (pH 7.2), 0.015% Brij-35, 150 mM EDTA), resulting in a final EDTA concentration of 50 mM. After termination of the kinase reaction, the proportion of phosphorylated product was determined as a fraction of total peptide substrate using the Caliper LabChip® 3000 according to the manufacturer's specifications. Ki values were then determined using the Morrison tight binding model (Morrison, J. F., Biochim. Biophys. Acta. 185:269-296 (1969); William, J. W. and Morrison, J. F., Meth. Enzymol., 63:437-467 (1979)) modified for ATP-competitive inhibition [Ki=Ki,app/(1+[ATP]/Km,app)].

The target of assay [2] is T2, isolated recombinant JAK2 kinase domain (Homo sapiens, UniProt O60674).
T2 construct: isolated recombinant JAK1 and JAK2 kinase domain
T2 sequence (O60674 849-1124 limits assumed): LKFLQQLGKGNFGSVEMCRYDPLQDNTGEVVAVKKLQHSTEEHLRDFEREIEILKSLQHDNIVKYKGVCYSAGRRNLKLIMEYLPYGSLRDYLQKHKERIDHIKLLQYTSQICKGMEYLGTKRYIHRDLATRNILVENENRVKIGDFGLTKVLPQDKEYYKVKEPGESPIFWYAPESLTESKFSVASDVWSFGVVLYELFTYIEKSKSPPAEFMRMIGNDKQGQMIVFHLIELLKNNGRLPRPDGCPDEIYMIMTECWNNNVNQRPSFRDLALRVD
Description: JAK enzyme assay, JAK2 kinase domain (Caliper LabChip). It counts as biochemical. To be noted: 0.2 nM JAK2, ATP 25 μM, Morrison tight binding model. As for the experimental part: as §1, §2

Assay [3] deals with JAK1-dependent STAT6 phosphorylation downstream of IL-13 stimulation in BEAS-2B cells. The experiment in a line: JAK1 pathway assay in cell lines: IL-13 p-STAT6 BEAS-2B. It is filed as cell-based. To be noted: BEAS-2B human bronchial epithelial cells, 1 hr compound, IL-13 15 min, MSD readout. As for the experimental part: JAK1 Pathway Assay in Cell Lines was Carried Out as Follows:
Inhibitor potency (EC50) was determined in cell-based assays designed to measure JAK1 dependent STAT phosphorylation. As noted above, inhibition of IL-4, IL-13, and IL-9 signalling by blocking the Jak/Stat signaling pathway can alleviate asthmatic symptoms in pre-clinical lung inflammation models (Mathew et al., 2001, J Exp Med 193(9): 1087-1096; Kudlacz et. al., 2008, Eur J. Pharmacol 582(1-3): 154-161).
In one assay approach, TF-1 human erythroleukemia cells obtained from the American Type Culture Collection (ATCC; Manassas, Va.) were used to measure JAK1-dependent STAT6 phosphorylation downstream of IL-13 stimulation. Prior to use in the assays, TF-1 cells were starved of GM-CSF overnight in OptiMEM medium (Life Technologies, Grand Island, N.Y.) supplemented with 0.5% charcoal/dextran stripped fetal bovine serum (FBS), 0.1 mM non-essential amino acids (NEAA), and 1 mM sodium pyruvate. The assays were run in 384-well plates in serum-free OptiMEM medium using 300,000 cells per well. In a second assay approach, BEAS-2B human bronchial epithelial cells obtained from ATCC were plated at 100,000 cells per well of a 96-well plate one day prior to the experiment. The BEAS-2B assay was run in complete growth medium (bronchial epithelial basal medium plus bulletkit; Lonza; Basel, Switzerland).
Test compounds were serially diluted 1:2 in DMSO and then diluted 1:50 in medium just before use. Diluted compounds were added to the cells, for a final DMSO concentration of 0.2%, and incubated for 30 mi (for the TF-1 assay) or 1 hr (for the BEAS-2B assay) at 37 QC. Then, cells were stimulated with human recombinant cytokine at their respective EC90 concentrations, as previously determined for each individual lot. Cells were stimulated with IL-13 (R&D Systems, Minneapolis, Minn.) for 15 min at 37 °C. The TF-1 cell reactions were stopped by the direct addition of 10× lysis buffer (Cell Signaling Technologies, Danvers, Mass.), whereas the BEAS-2B cell incubations were halted by the removal of medium and addition of 1× lysis buffer. The resultant samples were frozen in the plates at −80 °C. Compound mediated inhibition of STAT6 phosphorylation was measured in the cell lysates using MesoScale Discovery (MSD) technology (Gaithersburg, Md.). EC50 values were determined as the concentration of compound required for 50% inhibition of STAT phosphorylation relative to that measured for the DMSO control.

T1 sequence (P23458 875-1153 limits assumed): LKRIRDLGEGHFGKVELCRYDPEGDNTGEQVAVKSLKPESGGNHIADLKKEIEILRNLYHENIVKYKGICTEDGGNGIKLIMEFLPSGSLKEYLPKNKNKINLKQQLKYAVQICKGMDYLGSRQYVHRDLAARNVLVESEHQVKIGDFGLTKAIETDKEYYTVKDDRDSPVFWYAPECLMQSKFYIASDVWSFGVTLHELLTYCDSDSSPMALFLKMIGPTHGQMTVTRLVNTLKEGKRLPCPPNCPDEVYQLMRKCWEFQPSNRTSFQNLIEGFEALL

As for `CCc1cnn(C2(CC#N)CN(c3cccn4nc(Nc5ccc6c(c5)CCN([C@@H]5CCOC5)C6)nc34)C2)c1` (stereo in doubt) [Example 61, 2-[3-(4-ethylpyrazol-1-yl)-1-[2-[[2-[rac-(3R)-tetrahydrofuran-3-yl]-3,4-dihydro-1H-isoquinolin-6-yl]amino]-[1,2,4]triazolo[1,5-a]pyridin-8-yl]azetidin-3-yl]acetonitrile], the Ki in assay [1] and in assay [2] was 0.4 nM each time. In addition, the EC50 in assay [3] is 8 nM.
Turning to `CCc1cnn(C2(CC#N)CN(c3cccn4nc(Nc5ccc6c(c5)CCN([C@H]5CCOC5)C6)nc34)C2)c1` (stereo in doubt) [Example 62, 2-[3-(4-ethylpyrazol-1-yl)-1-[2-[[2-[rac-(3S)-tetrahydrofuran-3-yl]-3,4-dihydro-1H-isoquinolin-6-yl]amino]-[1,2,4]triazolo[1,5-a]pyridin-8-yl]azetidin-3-yl]acetonitrile], the Ki in assay [1] and in assay [2] was 0.4 nM each time. Further, a half-maximal effect in assay [3] (EC50) was put at 49 nM.
With `CCc1cnn(C2(CC#N)CN(c3cccn4nc(Nc5cnn(CC(=O)N6CCN(C)CC6)c5)nc34)C2)c1` [Example 1, 2-[3-(4-ethyl-1H-pyrazol-1-yl)-1-[2-([1-[2-(4-methylpiperazin-1-yl)-2-oxoethyl]-1H-pyrazol-4-yl]amino)-[1,2,4]triazolo[1,5-a]pyridin-8-yl]azetidin-3-yl]acetonitrile], the figures for the Ki in assay [1] and in assay [2] were 0.8 nM and 2 nM, respectively. The EC50 in assay [3] was determined as 29 nM.
For the compound `CCc1cnn(C2(CC#N)CN(c3cccn4nc(Nc5cn[nH]c5)nc34)C2)c1` [Example 2, 2-[3-(4-ethyl-1H-pyrazol-1-yl)-1-[2-[(1H-pyrazol-4-yl)amino]-[1,2,4]triazolo[1,5-a]pyridin-8-yl]azetidin-3-yl]acetonitrile], the Ki in assay [1] came out at 17.5 nM; in assay [2], 32.8 nM.
Turning to `CCc1cnn(C2(CC#N)CN(c3cccn4nc(Nc5cnn(CCCO)c5)nc34)C2)c1` [Example 3, 2-[3-(4-ethyl-1H-pyrazol-1-yl)-1-(2-[[1-(3-hydroxypropyl)-1H-pyrazol-4-yl]amino]-[1,2,4]triazolo[1,5-a]pyridin-8-yl)azetidin-3-yl]acetonitrile], the inhibition constant (Ki) in assay [1] was determined as 40.2 nM; in assay [2], 64 nM.
Regarding `CCc1cnn(C2(CC#N)CN(c3cccn4nc(Nc5cnn(CC(=O)N6CCC(NCC7(C#N)CC7)CC6)c5)nc34)C2)c1` [Example 4, 1-[[(1-[2-[4-([8-[3-(cyanomethyl)-3-(4-ethyl-1H-pyrazol-1-yl)azetidin-1-yl]-[1,2,4]triazolo[1,5-a]pyridin-2-yl]amino)-1H-pyrazol-1-yl]acetyl]piperidin-4-yl)amino]methyl]cyclopropane-1-carbonitrile], the Ki in assay [1] came out at 0.6 nM; in assay [2], 4.6 nM. In assay [3], the concentration giving a half-maximal response (EC50) worked out at 39 nM.
For the compound `CCc1cnn(C2(CC#N)CN(c3cccn4nc(Nc5cccc(CC(=O)N6CCN(C)CC6)c5)nc34)C2)c1` [Example 5, 2-[3-(4-ethyl-1H-pyrazol-1-yl)-1-[2-([3-[2-(4-methylpiperazin-1-yl)-2-oxoethyl]phenyl]amino)-[1,2,4]triazolo[1,5-a]pyridin-8-yl]azetidin-3-yl]acetonitrile], the inhibition constant (Ki) in assay [1] turned out to be 1.9 nM; in assay [2] it was 3.1 nM. Also, the response in assay [3] was half-maximal at 120 nM (EC50).
Take `CN1CCN(C(=O)Cn2cc(Nc3nc4c(N5CC(CC#N)(n6cc(Br)cn6)C5)cccn4n3)cn2)CC1` [Example 6, 2-[3-(4-bromo-1H-pyrazol-1-yl)-1-[2-([1-[2-(4-methylpiperazin-1-yl)-2-oxoethyl]-1H-pyrazol-4-yl]amino)-[1,2,4]triazolo[1,5-a]pyridin-8-yl]azetidin-3-yl]acetonitrile]: the Ki in assay [1] came out at 9.5 nM; in assay [2], 15.7 nM.
The like results for `CN1CCN(C(=O)Cn2cc(Nc3nc4c(N5CC(CC#N)(c6ccc(Cl)cc6)C5)cccn4n3)cn2)CC1` [Example 7, 2-[3-(4-chlorophenyl)-1-[2-[[1-[2-(4-methylpiperazin-1-yl)-2-oxo-ethyl]pyrazol-4-yl]amino]-[1,2,4]triazolo[1,5-a]pyridin-8-yl]azetidin-3-yl]acetonitrile] were, in that order, 37.2 nM and 50.4 nM.
As for `CN1CCN(C(=O)Cn2cc(Nc3nc4c(N5CC(CC#N)(N6CCOCC6)C5)cccn4n3)cn2)CC1` [Example 8], the Ki in assay [1] was 0.3 nM; in assay [2], 1.5 nM. Also, the midpoint of the response in assay [3], the EC50, lay at 12 nM.
The like results for `CN1CCN(C(=O)Cn2cc(Nc3nc4c(N5CC(CC#N)(N6CCN(C)CC6)C5)cccn4n3)cn2)CC1` [Example 9, 2-[3-(4-methylpiperazin-1-yl)-1-[2-[[1-[2-(4-methylpiperazin-1-yl)-2-oxo-ethyl]pyrazol-4-yl]amino]-[1,2,4]triazolo[1,5-a]pyridin-8-yl]azetidin-3-yl]acetonitrile] were, in that order, 0.6 nM, 2.5 nM and 34 nM.
The like results for `Cc1cnn(C2(CC#N)CN(c3cccn4nc(Nc5cnn(CC(=O)N6CCN(C)CC6)c5)nc34)C2)c1` [Example 10] were, in that order, 0.4 nM, 1.5 nM and 18 nM.
Turning to `CN1CCN(C(=O)Cn2cc(Nc3nc4c(N5CC(CC#N)(N6CCC(C(F)(F)F)CC6)C5)cccn4n3)cn2)CC1` [Example 11], the Ki in assay [1] was found to be 1.3 nM; in assay [2], 5.8 nM. The same compound came in with an EC50 in assay [3] of 37 nM.
The like results for `CN1CCN(C(=O)Cn2cc(Nc3nc4c(N5CC(CC#N)(N6CCC(F)(F)CC6)C5)cccn4n3)cn2)CC1` [Example 12, 2-[3-(4,4-difluoro-1-piperidyl)-1-[2-[[1-[2-(4-methylpiperazin-1-yl)-2-oxo-ethyl]pyrazol-4-yl]amino]-[1,2,4]triazolo[1,5-a]pyridin-8-yl]azetidin-3-yl]acetonitrile] were, in that order, 0.9 nM, 2.4 nM and 27 nM.
For `CN1CCN(C(=O)Cn2cc(Nc3nc4c(N5CC(CC#N)(N6CCC(C#N)CC6)C5)cccn4n3)cn2)CC1` [Example 13, 1-[3-(cyanomethyl)-1-[2-[[1-[2-(4-methylpiperazin-1-yl)-2-oxo-ethyl]pyrazol-4-yl]amino]-[1,2,4]triazolo[1,5-a]pyridin-8-yl]azetidin-3-yl]piperidine-4-carbonitrile], the Ki in assay [1] came out at 1.6 nM; in assay [2], 5.3 nM. In assay [3], this compound showed an EC50 of 82 nM.
In the case of `CSc1ccc(C2(CC#N)CN(c3cccn4nc(Nc5cnn(CC(=O)N6CCN(C)CC6)c5)nc34)C2)cc1` [Example 14], the Ki in assay [1] is 1.8 nM; in assay [2], 4.5 nM. Also, the concentration for a half-maximal effect (EC50) in assay [3] is 72 nM.
Regarding `CN1CCN(C(=O)Cn2cc(Nc3nc4c(N5CC(CC#N)(n6cc(I)cn6)C5)cccn4n3)cn2)CC1` [Example 89, 2-[3-(4-iodopyrazol-1-yl)-1-[2-[[1-[2-(4-methylpiperazin-1-yl)-2-oxo-ethyl]pyrazol-4-yl]amino]-[1,2,4]triazolo[1,5-a]pyridin-8-yl]azetidin-3-yl]acetonitrile], the Ki in assay [1] was 6.4 nM; in assay [2], 18.8 nM.
For `CCc1cnn(C2(CC#N)CN(c3nccn4nc(Nc5cn[nH]c5)nc34)C2)c1` [Example 153, 2-(1-(2-((1H-pyrazol-4-yl)amino)-[1,2,4]triazolo[1,5-a]pyrazin-8-yl)-3-(4-ethyl-1H-pyrazol-1-yl)azetidin-3-yl)acetonitrile], the Ki in assay [1] was found to be 9 nM; in assay [2], 15.5 nM.

These data come from patent publication US20230242530A1, “8-(AZETIDIN-1-YL)-[1,2,4]TRIAZOLO[1,5-A]PYRIDINYL COMPOUNDS, COMPOSITIONS AND METHODS OF USE THEREOF” (Genentech, Inc., priority 2016, published 2023).
